From patent publication US7919532B2, “Hydroxylated aromatic compounds” (Revotar Biopharmaceuticals AG, priority 2005, dated 2011)

Tests used:
[1] = biological target: T1, human P-Selectin-IgG-chimera (Homo sapiens, UniProt P16109); assay: Flow chamber assay, cell adhesion and rolling under flow conditions, P-selectin; assay type: cell-based; settings: 125 μM compound, HL-60 cells, flow shear 1 dyne/cm^2, dish coated 10 μg/ml P-selectin-IgG chimera
Protocol: (§1) Flow Chamber Assay/Cell Adhesion and Rolling Under Flow Conditions
(§2) To assess the capability of compounds to inhibit cell binding under dynamic conditions resembling the flow in a blood vessel, flow chamber assays addressing/testing binding of HL-60 cells/various cell lines to P-selectin, L-selectin and E-selectin chimeric molecules are performed.
(§3) Cell attachment under flow conditions are determined using a parallel flow chamber system. A 35 mm polystyrene culture dish is coated for 1 hour at room temperature with coating buffer (50 mM tris-(hydroxymethyl)aminomethane buffer (Tris), 150 mM NaCl, 2 mM CaCl2; pH 7.4) containing human E- or P-selectin-IgG chimera at concentrations of 2.5 μg/ml or 10 μg/ml, respectively. After removal of the coating solution non specific binding sites are blocked for an additional hour with 1% BSA in coating buffer at room temperature. After washing with assay buffer (“Roswell Park Memorial Institute 1640” (RPMI 1640)+10 mM HEPES) the dish is fitted into a parallel plate laminar flow chamber (sold from Glycotech, Rockville, Md.) and mounted on an inverted phase-contrast microscope (sold from Olympus, Hamburg, Germany) equipped with a CCD camera (JVC) that is connected to a PC. Employing a peristaltic pump (sold from Ismatec, Wertheim-Mondfeld, Germany) the re-circulating system is equilibrated with assay buffer containing 125 μM compound or vehicle control (DMSO). Cells (1 million/ml) are added to the chamber and allowed to distribute for 2 minutes at a high flow rate. The flow rate is then decreased resulting in a calculated flow shear of 1 dyne/cm^2. Video sequences of 10 low power fields are digitally recorded after 5 minutes continuous flow. The percentage of inhibition is calculated from the mean number of cells per field that attached to the coated dish surface in the presence versus absence of compound […].
(§4) Data from Flow Chamber Assay for E- and P-Selectin

[2] = biological target: T2, human E-Selectin-IgG-chimera (Homo sapiens, UniProt P16581); assay: Flow chamber assay, cell adhesion and rolling under flow conditions, E-selectin; assay type: cell-based; settings: 125 μM compound, HL-60 cells, flow shear 1 dyne/cm^2, dish coated 2.5 μg/ml E-selectin-IgG chimera
Protocol: as §1, §2, §3, §4

[3] = biological target: T3, human L-Selectin-IgG-chimera (Homo sapiens, UniProt P14151); assay: Sialyl Lewis X Tyrosine Sulfate Assay (sLex TSA), L-selectin; settings: inhibition of binding of sLex-tyrosine sulfate polyacrylamide ligand complex to selectin chimera
T3 construct: IgG (chimera partner)
Protocol: (§5) Compounds of the present invention are assayed on a molecular level for their ability to inhibit the binding of P-, L-, or E-selectin chimeric molecules to sLe^x and tyrosinesulfate residues linked to a polymeric matrix as a PSGL-1 substitute. Selected IC50-values are determined.
(§6) Microtiter plates are coated overnight in carbonate buffer pH9.6 with goat anti human Fc mAB (10 μg/ml). After washing in assay buffer (25 mM 4-(2-hydroxyethyl)-1-piperazineethanesulfonic acid (HEPES), 150 mM NaCl, 1 mM CaCl2 pH7.4) and blocking (3% bovine serum albumin (BSA) in assay buffer) plates are incubated for 2 h at 37° C. with human P-Selectin-IgG-chimera (0.61 nM respectively 150 ng/mL) or human L-Selectin-IgG-chimera (0.61 nM respectively 89 ng/mL) or human E-Selectin-IgG-chimera (0.61 nM respectively 131 ng/mL). 5 μl of sLe^x-tyrosine sulfate polyacrylamide (1 mg/ml) carrying 15% sLe^x, 10% Tyrosine-sulfate and 5% biotin is complexed with 20 μl Streptavidin-Peroxidase solution (1 mg/ml) and 25 μl assay buffer without CaCl2. For use in the assay, the ligand complex is diluted 1:10000 in assay buffer and further diluted 1:1 with varying amounts of compounds in assay buffer incl. 2% DMSO. This mixture is added to the wells precoated with E- or P-selectin. After incubation for 2 h at 37° C., wells are washed for six times with in assay buffer incl. 0.005% Polyoxyethylenesorbitan monolaurate (TWEEN 20), developed for 10-15 min with 20 μl 3,3′,5,5′-tetramethylbenzidine (TMB)/H2O2 substrate solution and stopped with 20 μl 1M H2SO4. Bound sLe^x-Tyrosine sulfate ligand complex is determined by measuring optical density at 450 nm vs. 620 nm in a Fusion alpha-FP reader (sold from Packard Bioscience, Dreieich, Germany).

[4] = biological target: T1, human P-Selectin-IgG-chimera; assay: Sialyl Lewis X Tyrosine Sulfate Assay (sLex TSA), P-selectin; set-up: IgG (chimera partner); settings: inhibition of binding of sLex-tyrosine sulfate polyacrylamide ligand complex to selectin chimera
Protocol: as §5, §6

[5] = biological target: T2, human E-Selectin-IgG-chimera; assay: Sialyl Lewis X Tyrosine Sulfate Assay (sLex TSA), E-selectin; set-up: IgG (chimera partner); settings: inhibition of binding of sLex-tyrosine sulfate polyacrylamide ligand complex to selectin chimera
Protocol: as §5, §6

T2 sequence (P16581 with tags, fused parts or gaps limits assumed): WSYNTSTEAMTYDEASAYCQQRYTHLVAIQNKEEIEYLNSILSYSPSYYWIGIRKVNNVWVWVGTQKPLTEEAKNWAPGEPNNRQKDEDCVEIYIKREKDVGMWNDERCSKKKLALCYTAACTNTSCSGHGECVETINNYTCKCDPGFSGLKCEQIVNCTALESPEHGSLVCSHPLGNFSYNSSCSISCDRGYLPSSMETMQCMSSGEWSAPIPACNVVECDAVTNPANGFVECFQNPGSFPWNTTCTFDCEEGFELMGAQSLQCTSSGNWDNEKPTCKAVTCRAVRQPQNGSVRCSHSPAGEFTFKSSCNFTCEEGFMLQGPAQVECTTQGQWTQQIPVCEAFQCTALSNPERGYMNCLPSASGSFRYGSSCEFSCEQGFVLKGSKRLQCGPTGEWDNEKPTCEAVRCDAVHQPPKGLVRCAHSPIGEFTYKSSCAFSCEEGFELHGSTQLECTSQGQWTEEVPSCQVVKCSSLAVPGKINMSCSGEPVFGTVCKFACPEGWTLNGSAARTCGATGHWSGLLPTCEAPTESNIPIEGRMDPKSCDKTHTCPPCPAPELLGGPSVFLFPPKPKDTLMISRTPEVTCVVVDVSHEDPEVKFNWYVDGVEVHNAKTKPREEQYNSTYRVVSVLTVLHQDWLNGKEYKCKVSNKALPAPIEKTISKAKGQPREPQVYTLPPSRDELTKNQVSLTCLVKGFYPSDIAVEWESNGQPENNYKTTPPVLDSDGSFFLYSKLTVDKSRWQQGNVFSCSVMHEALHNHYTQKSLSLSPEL
T3 sequence (P14151 with tags, fused parts or gaps limits assumed): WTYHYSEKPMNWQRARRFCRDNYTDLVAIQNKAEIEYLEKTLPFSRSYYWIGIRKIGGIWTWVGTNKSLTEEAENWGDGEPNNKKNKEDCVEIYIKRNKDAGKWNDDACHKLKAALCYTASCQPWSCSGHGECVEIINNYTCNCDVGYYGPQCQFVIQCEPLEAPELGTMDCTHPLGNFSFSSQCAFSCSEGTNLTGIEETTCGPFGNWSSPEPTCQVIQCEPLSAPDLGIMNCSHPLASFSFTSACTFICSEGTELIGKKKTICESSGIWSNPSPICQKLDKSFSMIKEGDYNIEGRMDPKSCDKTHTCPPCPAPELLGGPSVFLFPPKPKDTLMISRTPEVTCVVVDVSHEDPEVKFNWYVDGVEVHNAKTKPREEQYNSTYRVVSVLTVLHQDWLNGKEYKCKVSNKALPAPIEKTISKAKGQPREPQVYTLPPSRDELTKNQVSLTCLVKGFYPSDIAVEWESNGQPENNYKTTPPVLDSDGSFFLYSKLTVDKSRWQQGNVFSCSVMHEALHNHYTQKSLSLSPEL
T1 sequence (P16109 with tags, fused parts or gaps limits assumed): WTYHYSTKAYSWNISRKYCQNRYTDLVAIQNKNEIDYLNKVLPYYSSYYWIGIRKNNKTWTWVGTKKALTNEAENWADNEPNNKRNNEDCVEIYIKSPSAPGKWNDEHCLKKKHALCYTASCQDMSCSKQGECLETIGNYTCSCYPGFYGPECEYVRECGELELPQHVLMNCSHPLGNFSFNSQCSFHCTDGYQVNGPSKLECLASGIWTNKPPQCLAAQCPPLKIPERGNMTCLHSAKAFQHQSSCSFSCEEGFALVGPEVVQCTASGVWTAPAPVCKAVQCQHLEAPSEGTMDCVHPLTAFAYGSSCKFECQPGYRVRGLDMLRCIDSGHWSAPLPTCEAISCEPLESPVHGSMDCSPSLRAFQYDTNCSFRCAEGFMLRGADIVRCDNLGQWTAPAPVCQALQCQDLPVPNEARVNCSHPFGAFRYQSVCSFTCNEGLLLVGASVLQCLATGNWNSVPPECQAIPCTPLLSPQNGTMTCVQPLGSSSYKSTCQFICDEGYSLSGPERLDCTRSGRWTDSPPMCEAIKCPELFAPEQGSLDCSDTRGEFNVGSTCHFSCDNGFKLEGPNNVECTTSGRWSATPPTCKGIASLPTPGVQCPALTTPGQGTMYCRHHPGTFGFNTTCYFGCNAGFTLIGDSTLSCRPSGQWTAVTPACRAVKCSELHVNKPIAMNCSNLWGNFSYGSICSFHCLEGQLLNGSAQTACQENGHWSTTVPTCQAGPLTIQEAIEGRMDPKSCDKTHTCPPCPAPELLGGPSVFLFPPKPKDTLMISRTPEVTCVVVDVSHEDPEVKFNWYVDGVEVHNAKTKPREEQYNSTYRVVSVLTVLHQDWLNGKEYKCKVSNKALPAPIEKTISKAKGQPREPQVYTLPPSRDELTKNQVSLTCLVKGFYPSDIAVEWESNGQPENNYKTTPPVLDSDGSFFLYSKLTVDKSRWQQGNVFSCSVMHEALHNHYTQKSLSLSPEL

Row | Compound | P-Selectin [Ratio]: normalized ratio of %-inhibition of compound divided by %-inhibition of bimosiamose [1] | E-Selectin [Ratio]: normalized ratio of %-inhibition of compound divided by %-inhibition of bimosiamose [2] | IC50 [3] | IC50 [4] | IC50 [5]
1 | O=C(Nc1ccccc1-c1ccc(C(=O)O)s1)c1cccc(-c2c(O)cc(O)cc2O)c1 [Compound 26, 5-{2-[(2′,4′,6′-trihydroxy-biphenyl-3-carbonyl)-amino]-phenyl}-thiophene-2-carboxylic acid] | 0.77 Ratio | 1.11 Ratio | 28.2 µM | 27.8 µM | 33.3 µM
2 | O=C(Nc1cccc(C(F)(F)F)c1)c1cccc(-c2c(O)cc(O)cc2O)c1 [Compound 66, 2′,4′,6′-Trihydroxy-biphenyl-3-carboxylic acid (3-trifluoromethyl-phenyl)-amide] | 1.19 Ratio | 1.47 Ratio | – | – | –
3 | O=C(O)Cc1ccc(-c2ccccc2NC(=O)Cc2c(O)cc(O)cc2O)s1 [Compound 25, (5-{2-[2-(2,4,6-Trihydroxy-phenyl)-acetylamino]-phenyl}-thiophen-2-yl)-acetic acid] | 1.65 Ratio | 0.94 Ratio | 95.9 µM | 87.9 µM | 105 µM
4 | O=C(O)Cc1cccc(-c2cc(CCCCCCc3ccc(O[C@H]4O[C@H](CO)[C@@H](O)[C@H](O)[C@@H]4O)c(-c4cccc(CC(=O)O)c4)c3)ccc2O[C@H]2O[C@H](CO)[C@@H](O)[C@H](O)[C@@H]2O)c1 [Bimosiamose, bimosiamose, reference compound] | – | – | > 500 µM | – | –
5 | O=C(Cc1c(O)cc(O)cc1O)Nc1cccc(C(=O)O)c1 [Compound 18, 3-[2-(2,4,6-Trihydroxy-phenyl)-acetylamino]-benzoic acid] | 1.07 Ratio | 0.80 Ratio | 35.1 µM | 37.1 µM | 41.2 µM
6 | O=C(O)c1cccc(NC(=O)c2cccc(-c3c(O)cc(O)cc3O)c2)c1 [Compound 67, 3-[(2′,4′,6′-Trihydroxy-biphenyl-3-carbonyl)-amino]-benzoic acid] | 0.95 Ratio | 0.79 Ratio | 25.2 µM | 23.3 µM | 27.3 µM

Continued by falling IC50 [3], values first:

Row | P-Selectin [Ratio]: normalized ratio of %-inhibition of compound divided by %-inhibition of bimosiamose [1] | E-Selectin [Ratio]: normalized ratio of %-inhibition of compound divided by %-inhibition of bimosiamose [2] | IC50 [3] | IC50 [4] | IC50 [5] | Compound
7 | 1.27 Ratio | 0.75 Ratio | 22.1 µM | 20.7 µM | 12.4 µM | Cc1oc(-c2ccc(NC(=O)Cc3c(O)cc(O)cc3O)cc2)cc1C(=O)O [Compound 19, 2-Methyl-5-{4-[2-(2,4,6-trihydroxy-phenyl)-acetylamino]-phenyl}-furan-3-carboxylic acid]
8 | 0.87 Ratio | 1.23 Ratio | 17.4 µM | 17.4 µM | 21.9 µM | O=C(O)Cc1ccc(-c2ccccc2NC(=O)c2cccc(-c3c(O)cc(O)cc3O)c2)s1 [Compound 63, (5-{2-[(2′,4′,6′-Trihydroxy-biphenyl-3-carbonyl)-amino]-phenyl}-thiophen-2-yl)-acetic acid]
9 | 0.99 Ratio | 1.13 Ratio | 15.5 µM | 8.2 µM | 28.1 µM | O=C(Nc1ccccc1-c1cccs1)c1cccc(-c2c(O)cc(O)cc2O)c1 [Compound 65, 2′,4′,6′-Trihydroxy-biphenyl-3-carboxylic acid (2-thiophen-2-yl-phenyl)-amide]
10 | 1.23 Ratio | 1.06 Ratio | 6.3 µM | 6 µM | 5.7 µM | O=C(O)Cc1ccc(-c2cccc(NC(=O)c3cccc(-c4c(O)cc(O)cc4O)c3)c2)s1 [Compound 64, (5-{3-[(2′,4′,6′-trihydroxy-biphenyl-3-carbonyl)-amino]-phenyl}-thiophen-2-yl)-acetic acid]
11 | 0.99 Ratio | 1.05 Ratio | 6.1 µM | 5.2 µM | 7.8 µM | Cc1oc(-c2ccc(NC(=O)c3cccc(-c4c(O)cc(O)cc4O)c3)cc2)cc1C(=O)O [Compound 60, 2-Methyl-5-{4-[(2′,4′,6′-trihydroxy-biphenyl-3-carbonyl)-amino]-phenyl}-furan-3-carboxylic acid]
